Reference: ChEMBL document CHEMBL5143665, “Discovery and preclinical evaluations of WX-0593, a novel ALK inhibitor targeting crizotinib-resistant mutations” (Bioorg Med Chem Lett, 2022)

Legend:
BaF3 [1] = assay: Antiproliferative activity against crizotinib resistant mouse BaF3 cells expressing EML4 fused ALK F1174C mutant assessed as reduction in cell viability incubated for 72 hrs by Celltitre-Glo luminescent assay; format: functional, cell-based; conditions: BaF3, 72 h
BaF3 [2] = assay: Antiproliferative activity against crizotinib resistant mouse BaF3 cells expressing EML4 fused ALK I1171S mutant assessed as reduction in cell viability incubated for 72 hrs by Celltitre-Glo luminescent assay; format: functional, cell-based; conditions: BaF3, 72 h
BaF3 [3] = assay: Antiproliferative activity against crizotinib resistant mouse BaF3 cells expressing EML4 fused ALK T1151Tins mutant assessed as reduction in cell viability incubated for 72 hrs by Celltitre-Glo luminescent assay; format: functional, cell-based; conditions: BaF3, 72 h
BaF3 [4] = assay: Antiproliferative activity against crizotinib resistant mouse BaF3 cells expressing EML4 fused ALK F1174V mutant assessed as reduction in cell viability incubated for 72 hrs by Celltitre-Glo luminescent assay; format: functional, cell-based; conditions: BaF3, 72 h
BaF3 [5] = assay: Antiproliferative activity against crizotinib resistant mouse BaF3 cells expressing EML4 fused ALK V1180L mutant assessed as reduction in cell viability incubated for 72 hrs by Celltitre-Glo luminescent assay; format: functional, cell-based; conditions: BaF3, 72 h
BaF3 [6] = assay: Antiproliferative activity against crizotinib resistant mouse BaF3 cells expressing EML4 fused ALK L1152R mutant assessed as reduction in cell viability incubated for 72 hrs by Celltitre-Glo luminescent assay; format: functional, cell-based; conditions: BaF3, 72 h
BaF3 [7] = assay: Antiproliferative activity against crizotinib resistant mouse BaF3 cells expressing EML4 fused ALK L1152P mutant assessed as reduction in cell viability incubated for 72 hrs by Celltitre-Glo luminescent assay; format: functional, cell-based; conditions: BaF3, 72 h
BaF3 [8] = assay: Antiproliferative activity against crizotinib resistant mouse BaF3 cells expressing EML4 fused ALK I1171T mutant assessed as reduction in cell viability incubated for 72 hrs by Celltitre-Glo luminescent assay; format: functional, cell-based; conditions: BaF3, 72 h
BaF3 [9] = assay: Antiproliferative activity against crizotinib resistant mouse BaF3 cells expressing EML4 fused ALK I1171N mutant assessed as reduction in cell viability incubated for 72 hrs by Celltitre-Glo luminescent assay; format: functional, cell-based; conditions: BaF3, 72 h
BaF3 [10] = assay: Antiproliferative activity against mouse BaF3 cells harbouring SLC34A2-ROS1-L2026M mutant assessed as reduction in cell viability incubated for 72 hrs by Celltitre-Glo luminescent assay; format: functional, cell-based; conditions: BaF3, 72 h
BaF3 [11] = assay: Antiproliferative activity against mouse BaF3 cells harbouring CD74-ROS1-S1986Y mutant assessed as reduction in cell viability incubated for 72 hrs by Celltitre-Glo luminescent assay; format: functional, cell-based; conditions: BaF3, 72 h
BaF3 [12] = assay: Antiproliferative activity against mouse BaF3 cells harbouring CD74-ROS1-S1986F mutant assessed as reduction in cell viability incubated for 72 hrs by Celltitre-Glo luminescent assay; format: functional, cell-based; conditions: BaF3, 72 h
BaF3 [13] = assay: Antiproliferative activity against mouse BaF3 cells harbouring CD74-ROS1-D2033N mutant assessed as reduction in cell viability incubated for 72 hrs by Celltitre-Glo luminescent assay; format: functional, cell-based; conditions: BaF3, 72 h
cells [14] = conditions: Mus musculus, Ba/F3 EML4-ALK, 72 h
cells [15] = conditions: Mus musculus, BaF3, 72 h
cells [16] = conditions: Mus musculus, Ba/F3 EML4-ALK-G1202R, 72 h
cells [17] = conditions: Mus musculus, BaF3, 72 h; remark: listed apart in the source
cells [18] = conditions: Mus musculus, BaF3, 72 h; remark: listed apart in the source

COc1cc(N2CCC(N3CCN(C)CC3)CC2)ccc1Nc1ncc(Cl)c(Nc2ccccc2P(C)(C)=O)n1 [BRIGATINIB]
IC50 (BaF3 [1]): 98 nM
IC50 (BaF3 [2]): 93 nM
IC50 (BaF3 [3]): 35 nM
IC50 (BaF3 [4]): 47 nM
IC50 (BaF3 [5]): 10 nM
IC50 (BaF3 [6]): 10 nM
IC50 (BaF3 [7]): 1 nM
IC50 (BaF3 [8]): 19 nM
IC50 (BaF3 [9]): 35 nM
IC50 (BaF3 [10]): 48 nM
IC50 (BaF3 [11]): 12 nM
IC50 (BaF3 [12]): 20 nM
IC50 (BaF3 [13]): 36 nM
IC50 (cells [14]): 25 nM
IC50 (cells [15]): 31 nM
IC50 (cells [16]): 340 nM
IC50 (cells [17]): 31 nM
IC50 (cells [18]): 22 nM
